Data set [1] can be described thus: Half life in mouse plasma.
The nature of the next data set: in vivo. Particulars: rat, plasma.
The test system of data set [2] is Mus musculus. Nature of the data set: Antiinflammatory activity in LPS induced mouse model assessed as reduction in tumor necrosis factor alpha level in plasma at 1 mg/kg, po preincubated for 1 hr followed by LPS stimulation and measured after 2 hrs by ELISA method relative to control. In kind it is functional. More on the design: scale not given: the % may be the effect or the level left. Particulars: time 3 hrs. A general note: ELISA stands for enzyme-linked immunosorbent assay.

For data set [3], the system named is Mus musculus. Nature of the data set: Antiinflammatory activity in LPS induced mouse model assessed as reduction in IL-6 level in plasma at 1 mg/kg, po preincubated for 1 hr followed by LPS stimulation and measured after 2 hrs by ELISA method relative to control. It is filed as functional. More on the design: scale not given: the % may be the effect or the level left. The following applies: time 3 hrs.

Experimental findings from ChEMBL document CHEMBL5096164, “In Vivo Profiling of a Natural Alkaloid, Anatabine, in Rodents: Pharmacokinetics and Anti-Inflammatory Efficacy” (J Nat Prod, 2021) are described below.

Usually half-life stands for the time in which the quantity being followed falls by half. In the case of `CN1CCC[C@H]1c1cccnc1` [NICOTINE], the half-life is 6 min in data set [1] and 54 min in the data set “in vivo”.
As to `C[C@@H]1C[C@H]2[C@@H]3CCC4=CC(=O)C=C[C@]4(C)[C@@]3(F)[C@@H](O)C[C@]2(C)[C@@]1(O)C(=O)CO` [DEXAMETHASONE], the Activity with Mus musculus [2] is 72.1%; in the data set with Mus musculus [3], 46.9%.
